According to ChEMBL document CHEMBL6078700, “Synthesis of novel deuterated EGFR/ALK dual-target inhibitors and their activity against non-small cell lung cancer” (Eur J Med Chem, 2025):
pIC50: −log10 of the molar value.

Tests used:
[1] = Antiproliferative activity against human THLE-3 cells incubated for 48 hrs by CCK8 assay; format: toxicity, cell-based; settings: thle-3, 48 h
NCI-H1975 [2] = assay: Induction of apoptosis in human NCI-H1975 cells assessed as viable cells at 5 nM incubated for 48 hrs by allo-Phycocyanin-Annexin V staining based flow cytometry (reference value: 93.6 %); format: functional; settings: Homo sapiens, NCI-H1975, read-out: Activity
L02 = assay: Antiproliferative activity against human L02 cells incubated for 48 hrs by CCK8 assay; format: toxicity, cell-based; settings: l02, 48 h
NCI-H1975 [3] = assay: Antitumor activity against human NCI-H1975 cells xenografted in BALB/c-nu mouse at 5 mg/kg, po administered daily orally for 21 days relative to control; format: functional; settings: Mus musculus, NCI-H1975, po, 504 h, time 21 day, read-out: TGI
NCI-H1975 [4] = assay: Induction of cell cycle arrest in human NCI-H1975 cells assessed as accumulation at S phase at 10 nM incubated for 24 hrs by PI/RNase staining based flow cytometry (reference value: 17.1 %); format: functional
NCI-H1975 [5] = assay: Induction of cell cycle arrest in human NCI-H1975 cells assessed as accumulation at G0/G1 phase at 10 nM incubated for 24 hrs by PI/RNase staining based flow cytometry (reference value: 50.19 %); format: functional
HK-2 = assay: Antiproliferative activity against human HK-2 cells incubated for 48 hrs by CCK8 assay; format: toxicity, cell-based; settings: hk-2, 48 h
NCI-H522 = assay: Antiproliferative activity against human NCI-H522 cells expressing wild-type EGFR/ALK incubated for 48 hrs by CCK8 assay; settings: nci-h522
NCI-H1975 [6] = assay: Antitumor activity against human NCI-H1975 cells xenografted in BALB/c-nu mouse at 30 mg/kg, po administered daily orally for 21 days relative to control; format: functional; settings: Mus musculus, NCI-H1975, po, 504 h, time 21 day, read-out: TGI
NCI-H2228 = assay: Antiproliferative activity against human NCI-H2228 cells expressing EML4-ALK fusion incubated for 48 hrs by CCK8 assay; settings: nci-h2228
[7] = Apparent volume of distribution during terminal phase in Sprague-Dawley rat at 1 mg/kg, iv; format: ADME, organism-based; settings: in vivo
NCI-H1975 [8] = assay: Induction of cell cycle arrest in human NCI-H1975 cells assessed as accumulation at S phase at 5 nM incubated for 24 hrs by PI/RNase staining based flow cytometry (reference value: 17.1 %); format: functional
NCI-H1975 [9] = assay: Induction of apoptosis in human NCI-H1975 cells assessed as early apoptotic cells at 5 nM incubated for 48 hrs by allo-Phycocyanin-Annexin V staining based flow cytometry (reference value: 2.27 %); format: functional
NCI-H1975 [10] = assay: Induction of apoptosis in human NCI-H1975 cells assessed as necrotic cells at 5 nM incubated for 48 hrs by allo-Phycocyanin-Annexin V staining based flow cytometry (reference value: 0.031 %); format: functional
[11] = Antiproliferative activity against human HLF1 cells incubated for 48 hrs by CCK8 assay; format: toxicity, cell-based; settings: hlf1, 48 h
NCI-H1975 [12] = assay: Induction of cell cycle arrest in human NCI-H1975 cells assessed as accumulation at G2/M phase at 10 nM incubated for 24 hrs by PI/RNase staining based flow cytometry (reference value: 32.71 %); format: functional
NCI-H1975 [13] = assay: Induction of apoptosis in human NCI-H1975 cells assessed as viable cells at 1 nM incubated for 48 hrs by allo-Phycocyanin-Annexin V staining based flow cytometry (reference value: 93.6 %); format: functional; settings: read-out: Activity
NCI-H1975 [14] = assay: Induction of apoptosis in human NCI-H1975 cells assessed as early apoptotic cells at 1 nM incubated for 48 hrs by allo-Phycocyanin-Annexin V staining based flow cytometry (reference value: 2.27 %); format: functional
[15] = Apparent oral clearance in Sprague-Dawley rat at 1 mg/kg, iv; format: ADME, organism-based; settings: in vivo
NCI-H1975 [16] = assay: Induction of apoptosis in human NCI-H1975 cells assessed as viable cells at 10 nM incubated for 48 hrs by allo-Phycocyanin-Annexin V staining based flow cytometry (reference value: 93.6 %); format: functional; settings: read-out: Activity
NCI-H1975 [17] = assay: Induction of cell cycle arrest in human NCI-H1975 cells assessed as accumulation at G0/G1 phase at 1 nM incubated for 24 hrs by PI/RNase staining based flow cytometry (reference value: 50.19 %); format: functional
[18] = MRT (0 to t) in Sprague-Dawley rat at 10 mg/kg, po; format: ADME, organism-based; settings: in vivo
[19] = Tmax in Sprague-Dawley rat at 1 mg/kg, iv; format: ADME, organism-based; settings: in vivo
BaF3 = assay: Antiproliferative activity against mouse BaF3 cells expressing EML4-ALK fusion incubated for 48 hrs by CCK8 assay; settings: baf3
NCI-H1975 [20] = assay: Induction of apoptosis in human NCI-H1975 cells assessed as early apoptotic cells at 10 nM incubated for 48 hrs by allo-Phycocyanin-Annexin V staining based flow cytometry (reference value: 2.27 %); format: functional
NCI-H1975 [21] = assay: Antitumor activity against human NCI-H1975 cells xenografted in BALB/c-nu mouse at 15 mg/kg, po administered daily orally for 21 days relative to control; format: functional; settings: Mus musculus, NCI-H1975, po, 504 h, time 21 day, read-out: TGI
NCI-H1975 [22] = assay: Induction of apoptosis in human NCI-H1975 cells assessed as late apoptotic cells at 5 nM incubated for 48 hrs by allo-Phycocyanin-Annexin V staining based flow cytometry (reference value: 4.08 %); format: functional
NCI-H1975 [23] = assay: Induction of cell cycle arrest in human NCI-H1975 cells assessed as accumulation at S phase at 1 nM incubated for 24 hrs by PI/RNase staining based flow cytometry (reference value: 17.1 %); format: functional
[24] = Tmax in Sprague-Dawley rat at 10 mg/kg, po; format: ADME, organism-based; settings: in vivo
NCI-H1975 [25] = assay: Induction of cell cycle arrest in human NCI-H1975 cells assessed as accumulation at G0/G1 phase at 5 nM incubated for 24 hrs by PI/RNase staining based flow cytometry (reference value: 50.19 %); format: functional
[26] = Cmax in Sprague-Dawley rat at 10 mg/kg, po; format: ADME, organism-based; settings: in vivo
[27] = Half life in Sprague-Dawley rat at 1 mg/kg, iv; format: ADME, organism-based; settings: in vivo
NCI-H1975 [28] = assay: Induction of apoptosis in human NCI-H1975 cells assessed as late apoptotic cells at 10 nM incubated for 48 hrs by allo-Phycocyanin-Annexin V staining based flow cytometry (reference value: 4.08 %); format: functional
NCI-H1975 [29] = assay: Induction of apoptosis in human NCI-H1975 cells assessed as necrotic cells at 1 nM incubated for 48 hrs by allo-Phycocyanin-Annexin V staining based flow cytometry (reference value: 0.031 %); format: functional
[30] = Antiproliferative activity against human NCI-H1975 cells expressing EGFR mutation incubated for 48 hrs by CCK8 assay; settings: nci-h1975
NCI-H1975 [31] = assay: Induction of cell cycle arrest in human NCI-H1975 cells assessed as accumulation at G2/M phase at 1 nM incubated for 24 hrs by PI/RNase staining based flow cytometry (reference value: 32.71 %); format: functional
[32] = Oral bioavailability in Sprague-Dawley rat at 10 mg/kg; format: ADME, organism-based; settings: in vivo
[33] = Half life in Sprague-Dawley rat at 10 mg/kg, po; format: ADME, organism-based; settings: in vivo
NCI-H1975 [34] = assay: Induction of cell cycle arrest in human NCI-H1975 cells assessed as accumulation at G2/M phase at 5 nM incubated for 24 hrs by PI/RNase staining based flow cytometry (reference value: 32.71 %); format: functional
NCI-H1975 [35] = assay: Induction of apoptosis in human NCI-H1975 cells assessed as late apoptotic cells at 1 nM incubated for 48 hrs by allo-Phycocyanin-Annexin V staining based flow cytometry (reference value: 4.08 %); format: functional
NCI-H1975 [36] = assay: Induction of apoptosis in human NCI-H1975 cells assessed as necrotic cells at 10 nM incubated for 48 hrs by allo-Phycocyanin-Annexin V staining based flow cytometry (reference value: 0.031 %); format: functional

pIC50 (NCI-H522): 5.71
pIC50 (NCI-H2228): 7.67
Vz/F [7]: 5.9 L/kg
CL/F [15]: 63.7 mL/min/kg
MRT last [18]: 3.57 h
Tmax [19]: 1.98 min
pIC50 (BaF3): 8.62
Tmax [24]: 0.5 h
Cmax [26]: 169 ng/mL
half-life [27]: 1.06 h
bioavailability [32]: 44.1%
half-life [33]: 4.65 h
SMILES: [2H]C([2H])([2H])C([2H])([2H])[S+]([O-])c1ccccc1Nc1nc(Nc2cc(NC(=O)C=C)c(N(C)CCN(C)C)cc2OC)ncc1Cl (single isomer, unassigned; (-))
Activity [1]: Non-toxic
viability at 0.005 µM (NCI-H1975 [2]): 62.8%
Activity (L02): Non-toxic
inhibition in vivo at 5 mg/kg (NCI-H1975 [3]): 80.3%
Activity (NCI-H1975 [4]): 3.84%
Activity (NCI-H1975 [5]): 68.32%
Activity (HK-2): Non-toxic
inhibition in vivo at 30 mg/kg (NCI-H1975 [6]): 97.2%
Activity (NCI-H1975 [8]): 3.78%
Activity (NCI-H1975 [9]): 22.8%
Activity (NCI-H1975 [10]): 0.16%
Activity [11]: Non-toxic
Activity (NCI-H1975 [12]): 28.2%
viability at 0.001 µM (NCI-H1975 [13]): 75.4%
Activity (NCI-H1975 [14]): 16.6%
viability at 0.01 µM (NCI-H1975 [16]): 46.8%
Activity (NCI-H1975 [17]): 64.57%
Activity (NCI-H1975 [20]): 32.5%
inhibition in vivo at 15 mg/kg (NCI-H1975 [21]): 93.2%
Activity (NCI-H1975 [22]): 14.3%
Activity (NCI-H1975 [23]): 12.5%
Activity (NCI-H1975 [25]): 67.31%
Activity (NCI-H1975 [28]): 20.5%
Activity (NCI-H1975 [29]): 0.071%
pIC50 [30]: 8.97
Activity (NCI-H1975 [31]): 22.93%
Activity (NCI-H1975 [34]): 28.91%
Activity (NCI-H1975 [35]): 7.98%
Activity (NCI-H1975 [36]): 0.22%
